Assay results published in ChEMBL document CHEMBL1932965, “Synthesis and SAR of inhibitors of protein kinase CK2: novel tricyclic quinoline analogs” (Bioorg Med Chem Lett, 2012).

These molecules were tested against Casein kinase II alpha/beta (Homo sapiens, UniProt P68400) (assay: Inhibition of human recombinant CK2alpha/CK2beta using RRRDDDSDDD peptide as substrate by radiometric assay).
Assay type: protein-complex assay

Sequence of Casein kinase II alpha/beta (P68400 whole entry, looked up): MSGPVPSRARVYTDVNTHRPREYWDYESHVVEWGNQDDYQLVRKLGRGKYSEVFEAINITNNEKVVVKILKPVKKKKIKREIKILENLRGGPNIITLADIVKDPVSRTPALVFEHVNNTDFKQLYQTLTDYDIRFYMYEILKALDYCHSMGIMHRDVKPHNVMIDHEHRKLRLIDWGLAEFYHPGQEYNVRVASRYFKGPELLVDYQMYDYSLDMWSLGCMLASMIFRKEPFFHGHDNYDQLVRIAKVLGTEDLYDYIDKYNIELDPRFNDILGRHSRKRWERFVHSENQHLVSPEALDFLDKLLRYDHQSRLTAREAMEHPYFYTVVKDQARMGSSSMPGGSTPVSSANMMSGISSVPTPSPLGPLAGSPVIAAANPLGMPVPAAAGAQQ

Row | IC50 | Structure (SMILES)
1 | 1.1 nM | O=C(O)c1ccc2c(c1)nc(-c1ccccc1)c1ccncc12
2 | > 2500 nM | O=C(O)c1ccc2c(c1)nc(-c1cccnc1)c1ccncc12
3 | 35 nM | O=C(O)c1ccc2c(c1)nc(-c1ccncc1)c1ccncc12
4 | 2.9 nM | O=C(O)c1ccc2c(c1)nc(-c1cccc(Cl)c1)c1ccncc12
5 | 1.3 nM | O=C(O)c1ccc2c(c1)nc(-c1cccc(F)c1)c1ccncc12
6 | 2.7 nM | Nc1cccc(-c2nc3cc(C(=O)O)ccc3c3cnccc23)c1
7 | 1 nM | O=C(O)c1ccc2c(c1)nc(-c1cccc(O)c1)c1ccncc12
8 | 34 nM | COc1cccc(-c2nc3cc(C(=O)O)ccc3c3cnccc23)c1
9 | 5.7 nM | O=C(O)c1ccc2c(c1)nc(-c1cccc(OC(F)(F)F)c1)c1ccncc12
10 | 13 nM | CS(=O)(=O)c1cccc(-c2nc3cc(C(=O)O)ccc3c3cnccc23)c1
11 | 11 nM | NS(=O)(=O)c1cccc(-c2nc3cc(C(=O)O)ccc3c3cnccc23)c1
12 | 3.5 nM | NC(=O)c1cccc(-c2nc3cc(C(=O)O)ccc3c3cnccc23)c1
13 | 0.5 nM | O=C(O)c1ccc2c(c1)nc(-c1ccc(Cl)cc1)c1ccncc12
14 | 1.2 nM | O=C(O)c1ccc2c(c1)nc(-c1ccc(F)cc1)c1ccncc12
15 | 20 nM | Cc1ccccc1-c1nc2cc(C(=O)O)ccc2c2cnccc12
16 | 39 nM | O=C(O)c1ccc2c(c1)nc(-c1ccccc1OC(F)(F)F)c1ccncc12
17 | 15 nM | O=C(O)c1ccc2c(c1)nc(-c1ccccc1F)c1ccncc12
18 | 12 nM | O=C(O)c1ccc2c(c1)nc(-c1ccc(Cl)cc1)c1ncncc12

Row | IC50 | Structure (SMILES)
19 | 3.5 nM | O=C(O)c1ccc2c(c1)nc(-c1cccc(O)c1)c1ncncc12
20 | 17 nM | NC(=O)c1cccc(-c2nc3cc(C(=O)O)ccc3c3cncnc23)c1
21 | 0.6 nM | O=C(O)c1ccc2c(c1)nc(-c1ccccc1)c1nc(NC3CC3)ncc12
22 | 0.5 nM | CCNc1ncc2c(n1)c(-c1ccc(Cl)cc1)nc1cc(C(=O)O)ccc12
23 | 0.5 nM | O=C(O)c1ccc2c(c1)nc(-c1ccsc1)c1ccncc12
24 | 4.2 nM | Cc1cscc1-c1nc2cc(C(=O)O)ccc2c2cnccc12
25 | 0.4 nM | O=C(O)c1ccc2c(c1)nc(-c1ccc(Cl)s1)c1ccncc12
26 | 395 nM | COC(=O)c1ccc2c(c1)nc(-c1ccc(Cl)cc1)c1ccncc12
27 | 30 nM | NC(=O)c1ccc2c(c1)nc(-c1ccc(Cl)cc1)c1ccncc12
28 | 444 nM | CONC(=O)c1ccc2c(c1)nc(-c1ccc(Cl)cc1)c1ccncc12
29 | > 2500 nM | N#Cc1ccc2c(c1)nc(-c1ccc(Cl)cc1)c1ccncc12
30 | 20 nM | Clc1ccc(-c2nc3cc(-c4nnn[nH]4)ccc3c3cnccc23)cc1
31 | 164 nM | O=C(O)c1ccc2nc(-c3ccc(Cl)cc3)c3ccncc3c2c1
32 | 2030 nM | O=C(O)c1cccc2c1nc(-c1ccc(Cl)cc1)c1ccncc12
33 | 8.9 nM | CN(c1cccc(Cl)c1)c1nc2cc(C(=O)O)ccc2c2cnccc12
34 | 3.7 nM | O=C(O)c1ccc2c(c1)nc(Oc1cccc(Cl)c1)c1ccncc12
35 | 1 nM | O=C(O)c1ccc2c(c1)nc(Sc1cccc(Cl)c1)c1ccncc12
36 | 2.1 nM | O=C(O)c1ccc2c(c1)nc(Cc1cccc(Cl)c1)c1ccncc12
